# Experimental data taken from publication PMC8815882, “Screening the pandemic response box identified benzimidazole carbamates, Olorofim and ravuconazole as promising drug candidates for the treatment of eumycetoma” (PLoS Neglected Tropical Diseases, 2022).
# Like-named read-outs stand apart in the source and are kept apart here.
# Test system: M. mycetomatis genome strain MM55
# Assay: CLSI M38-A2 based in vitro susceptibility screening (XTT or resazurin), growth at fixed concentration
# Format: cell-based, Madurella mycetomatis
# Conditions: Madurella mycetomatis
# [1] = 25 uM, replicate A, read-out: Percentage survival at 25um, 25 um A
# [2] = mean of three replicates, read-out: Percentage survival at 100um, 100 uM mean
# [3] = replicate 1, read-out: Percentage survival at 100um, 100 uM A (first replicate column)
# [4] = replicate 2, read-out: Percentage survival at 100um, 100 uM A (second replicate column)
# [5] = replicate 3, read-out: Percentage survival at 100um, 100 uM A (third replicate column)
# [6] = read-out: Percentage survival at 25um, 25 uM B
# [7] = read-out: Percentage survival at 25um, 25 uM C
# [8] = read-out: Percentage survival at 25um, 25 uM mean
# [9] = 25 uM, replicate B, read-out: Percentage survival at 25um, 25 uM B
# [10] = 25 uM, replicate C, read-out: Percentage survival at 25um, 25 uM C
# [11] = 25 uM, mean of three replicates, read-out: Percentage survival at 25um, 25 uM mean
# [12] = first replicate column, read-out: Percentage survival at 100um, 100 uM A
# [13] = second replicate column, read-out: Percentage survival at 100um, 100 uM A
# [14] = third replicate column, read-out: Percentage survival at 100um, 100 uM A
SMILES,activity at 25 µM [1] [%],activity at 100 µM [2] [%],activity at 100 µM [3] [%],activity at 100 µM [5] [%],activity at 25 µM [9] [%],activity at 25 µM [10] [%],activity at 25 µM [11] [%],Percent fungal survival at 100 µM [4] [%],activity at 100 µM [12] [%],activity at 100 µM [13] [%],activity at 100 µM [14] [%],further results
CCN(CC)CCCC(C)Nc1ccnc2cc(Cl)ccc12 (centres unmarked) [MMV000008],87.2,62.1,45.5,79.8,–,–,–,–,–,–,–,activity at 100 µM [4]: 61%; activity at 25 µM [6]: 72.9%; activity at 25 µM [7]: 80.7%; activity at 25 µM [8]: 80.3%
COc1cc(Cc2cnc(N)nc2N)cc(OC)c1OC [MMV000028],–,–,–,–,–,–,–,–,–,–,–,"activity at 25 µM (25 uM, mean of three, M. mycetomatis MM55, read-out: Percentage survival at 25um, 25 uM mean): 83.8%; activity at 25 µM (25 uM, replicate A, M. mycetomatis MM55, read-out: Percentage survival at 25um, 25 um A): 93.1%; activity at 25 µM (25 uM, replicate B, M. mycetomatis MM55, read-out: Percentage survival at 25um, 25 uM B): 86.4%; activity at 25 µM (25 uM, replicate C, M. mycetomatis MM55, read-out: Percentage survival at 25um, 25 uM C): 71.8%; activity at 100 µM (mean of three, M. mycetomatis MM55, read-out: Percentage survival at 100um, 100 uM mean): 77.4%; activity at 100 µM (replicate 1, M. mycetomatis MM55, read-out: Percentage survival at 100um, 100 uM A (first replicate column)): 78.2%; activity at 100 µM (replicate 2, M. mycetomatis MM55, read-out: Percentage survival at 100um, 100 uM A (second replicate column)): 74.4%; activity at 100 µM (replicate 3, M. mycetomatis MM55, read-out: Percentage survival at 100um, 100 uM A (third replicate column)): 79.6%"
CONC(=N)c1ccc(-c2ccc(-c3ccc(C(=N)NOC)cc3)o2)cc1 [MMV000059],94.2,–,–,–,81,79.4,–,–,–,–,–,"activity at 25 µM (25 uM, mean, read-out: Percentage survival at 25um, 25 uM mean): 84.9%; activity at 100 µM (mean, read-out: Percentage survival at 100um, 100 uM mean): 95.8%; activity at 100 µM (replicate (first column), read-out: Percentage survival at 100um, 100 uM A): 101%; activity at 100 µM (replicate (second column), read-out: Percentage survival at 100um, 100 uM A): 92%; activity at 100 µM (replicate (third column), read-out: Percentage survival at 100um, 100 uM A): 94.6%"
O=C(c1ccccc1)N1CCN(c2ccccc2NC(=O)C(Cl)(Cl)Cl)CC1 [MMV001014],69,–,–,–,93.3,65.7,–,–,–,–,–,"activity at 25 µM (25 uM, mean of replicates, read-out: Percentage survival at 25um, 25 uM mean): 76%; activity at 100 µM (mean of replicates, read-out: Percentage survival at 100um, 100 uM mean): 78.9%; activity at 100 µM (replicate 1, read-out: Percentage survival at 100um, 100 uM A): 98.3%; activity at 100 µM (replicate 2, read-out: Percentage survival at 100um, 100 uM A): 71.3%; activity at 100 µM (replicate 3, read-out: Percentage survival at 100um, 100 uM A): 67.2%"
Cc1c(OCC(F)(F)F)ccnc1C[S+]([O-])c1nc2ccccc2[nH]1 (centres unmarked) [MMV001438],79.3,55.3,41.9,71.8,123,84.8,95.7,52.1,–,–,–,–
CCCCc1ccc(C(=O)O)nc1 [MMV001726],92.6,74.3,–,–,–,–,–,–,91.2,61.7,69.8,activity at 25 µM [6]: 104%; activity at 25 µM [7]: 77.4%; activity at 25 µM [8]: 91.3%
Nc1nc(O)c2ncn(COC(CO)CO)c2n1 [MMV001761],86.2,87,–,–,64.3,58.4,69.6,–,93.4,85.2,82.5,–
CC1=C(/C=C/C(C)=C/C=C/C(C)=C/C(=O)Nc2ccc(O)cc2)C(C)(C)CCC1 [MMV001793],69.1,62,59,68.7,68.9,66.2,68.1,58.3,–,–,–,–
Nc1nc(O)c2ncn(COCCO)c2n1 [MMV001961],88.7,84.1,–,–,94.5,87.8,90.3,–,88.4,78.9,85,–
NNC(=O)c1ccncc1 [MMV002169],90.1,85.3,84.8,89.3,80.7,85.9,85.6,81.9,–,–,–,–
